Assay results reported in patent US20220290184A1, “DONOR PIGS FOR XENOTRANSPLANTATION” (NZENO LIMITED, priority 2019, published 2022).
“Also recorded” adds a separate entry of the source. Marks after values point to notes of the source that are not given here. Where a SMILES comes first, the peptide text is derived from it. The star is where a group is joined. Cbz = O=C(OCc1ccccc1)*

How the values were obtained:
Assay type in all cases: cell-based, pig
[1] = system: parthenogenetically activated porcine oocytes; experiment: Parthenogenetic oocyte activation (PG) embryo development in vitro; details: PG embryos; 5 μM MG132 from oocyte selection until activation
porcine SCNT embryos = experiment: Zona-free somatic cell nuclear transfer (SCNT) embryo development in vitro
Method: Ovaries were sourced from pre-pubertal gilts slaughtered at the Ruakura abattoir (AgResearch, New Zealand). Cumulus-oocyte complexes (COCs) were recovered by follicular aspiration and matured in vitro (IVM) for 44 h. Two IVM systems to mature porcine oocytes were compared: biphasic (ESOF and LSOF) IVM1/2 medium containing 1 mM dibutyryl cyclic adenosine monophosphate for the first 20-24 h (Bagg et al., 2006; Somfai and Hirao, 2011) and FLI medium supplemented with FGF2, LIF and IGF1 for the entire IVM period (Yuan et al., 2017).
COCs were denuded by vortexing with 0.1% hyaluronidase (Sigma) at 2000 rpm for about 60-90 sec. Oocytes were washed twice in HEPES-buffered TCM199 medium (H199)+10% FCS. Denuded oocytes were incubated for 10 min with 0.2M sucrose in H199+10% FCS. Oocytes that maintained a regular, round shape (but smaller diameter) along with a first polar body (1PB) were selected for use.
For zona-free SCNT, pronase was used to remove the zona pellucida. Oocytes were washed thoroughly before staining DNA with 5 μg/mL H33342 plus 7.5 μg/mL cytochalasin B (all Sigma) for 5 min. A 24 μm outer diameter blunt-ended pipette was used for UV-assisted enucleation of metaphase II stage oocytes at 35° C.
Donor cells (e.g. NZK1 kidney fibroblasts) were trypsinised to a single cell suspension after 5-7 days in medium with 0.5% FCS. Single cells were adhered to each enucleated cytoplast with the aid of 20 μg/mL phytohemagglutinin in H199+3 mg/mL BSA. […] Following fusion, reconstructed embryos were held in embryo culture medium without Ca+10% FCS+5 μg/mL cytochalasin B at 38.5° C. in 5% CO2 in air for 2-4 h before activation.
To maintain high levels of maturation promoting factor-cyclin B complex in oocytes aiding nuclear reprogramming, some experiments compared the addition of 5 μM of the proteasome inhibitor MG132 (Sigma). This was added to media formulations from the time of sucrose selection of oocytes until activation of NT reconstructed embryos (Le Bourhis et al., 2010).
Activation of reconstructed NT embryos was initiated with three direct current pulses of 1.0-1.5 kV/cm for 80 μs each, in buffer containing 0.1 mM calcium, ˜50-52 h after the start of IVM.
Within 5 min of electrical stimulation, reconstructed embryos were transferred to culture medium (e.g. ESOF) supplemented with 2 mM 6-dimethylaminopurine+5 μg/mL cytochalasin B and cultured individually in 5 μL drops for 3 h at 38.5° C. In 5% CO2. Afterwards, embryos were washed thoroughly in HEPES SOF before in vitro culture for 6-7 days. […] Embryo development was assessed on Day 6 or 7 and the numbers of nuclei in resulting blastocysts determined in selected experiments.

CMAH gene = experiment: CRISPR activity assay with TIDE analysis, CMAH target locus
Method: Cell culture and transfection was performed as described in Example 4 section 4.1.2.
The CRISPR activity assay was performed as described in Example 4 section 4.1.3 using the CMAH-specific CRISPRs (68rev, 165fw) and CMAH primers (CMAHF-[…] (SEQ ID NO: 48) and CMAHR-[…]3 (SEQ ID NO: 49)).

[2] = SCNT embryos, 5 μM MG132 from oocyte selection until activation

CC(C)C[C@@H](C=O)NC(=O)[C@H](CC(C)C)NC(=O)[C@H](CC(C)C)NC(=O)OCc1ccccc1 [MG132] (Cbz-Leu-Leu-Leu-aldehyde)
Blastocyst Development Day 7 [1]: 23% | Cleavage [1]: 100% | Benefit in terms of in vitro development following SCNT or PG (porcine SCNT embryos; 5 μM MG132 between oocyte selection and activation, preliminary experiment): unable to show any benefit; also recorded: showed no benefit | Blastocyst Development Day 7 (porcine SCNT embryos; [2]): 11%^b | Cleavage (porcine SCNT embryos; [2]): 99% | Fusion (porcine SCNT embryos; [2]): 49%

68rev: guide RNA targeting exon 3 of CMAH, TAAGAATAAGAGCCGCCTGA (SEQ ID NO: 46) (listed as DNA, chemistry not given here)
CRISPR activity compared to the second CMAH CRISPR 165fw (CMAH gene): higher activity
